Results on one substance are retold here after patent US11541015B2, “Self-righting systems, methods, and related components” (priority 2017, dated 2023).

In this assay the test system is glucose-6-phosphate. Conditions: micropost tips 40% G6PD and 60% PEO 200 k, versus uncompressed powder. How it is done:
To perform the activity assay on G6PD, an activity assay kit (Sigma Aldrich) was used which measures the amount of oxidized glucose-6-phosphate. […] Duplicate assays were performed on the dissolved solution.

On to glucose-6-phosphate dehydrogenase, for which the “G6PD activity after the manufacturing process” value is “maintain their activity”.
